The text below walks through data of ChEMBL document CHEMBL1133337, “Synthesis and transfection properties of novel non-toxic monocationic lipids. Variation of lipid anchor, spacer and head group structure” (2000).

Holding throughout (type): functional, Cercopithecidae
In test [1] the test system is COS-7. As to the kind of experiment: Transfection efficiency when the compound/DNA charge ratio was 11:1.
Test [2] relates to COS-7. As to the kind of experiment: Transfection efficiency when the compound/DNA charge ratio was 13:1.
The test system of test [3] is COS-7. As to the kind of experiment: Transfection efficiency when the compound/DNA charge ratio was 15:1.
In test [4] the test system is COS-7. As to the kind of experiment: Transfection efficiency when the compound/DNA charge ratio was 1:1.
For test [5], the system named is COS-7. As to the kind of experiment: Transfection efficiency when the compound/DNA charge ratio was 3:1.
For test [6], the system named is COS-7. As to the kind of experiment: Transfection efficiency when the compound/DNA charge ratio was 5:1.
Test [7] deals with COS-7. As to the kind of experiment: Transfection efficiency when the compound/DNA charge ratio was 9:1.
For test [8], the system named is COS-7. The experiment in a line: Transfection efficiency when the compound/DNA charge ratio was 7:1.

`CC(C)CCCC(C)[C@H]1CC[C@H]2C3CC=C4C[C@@H](OC(=O)C[N+](C)(C)CCO)CCC4(C)[C@H]3CCC12C` (stereo partly specified): the Transfection efficiency in the test on COS-7 [1] is listed as 31100 RLU (ug of protein)-1; in the test on COS-7 [2] it was 30000 RLU (ug of protein)-1; with COS-7 [3] it was 31000 RLU (ug of protein)-1; in the test on COS-7 [4], 4300 RLU (ug of protein)-1; in the test with COS-7 [5], 4800 RLU (ug of protein)-1; with COS-7 [6], 18500 RLU (ug of protein)-1. In addition, the Transfection efficiency in the test with COS-7 [7] is 29600 RLU (ug of protein)-1; in the test with COS-7 [8], 26500 RLU (ug of protein)-1.

As for `CC(C)CCCC(C)[C@H]1CC[C@H]2C3CC=C4C[C@@H](OC(=O)OCC[N+](C)(C)C)CCC4(C)[C@H]3CCC12C` (stereo partly specified), the Transfection efficiency in the test with COS-7 [1] is 3600 RLU (ug of protein)-1; in the test on COS-7 [2], 2200 RLU (ug of protein)-1; in the test on COS-7 [3] it was 2000 RLU (ug of protein)-1; in the test on COS-7 [4], 48500 RLU (ug of protein)-1; with COS-7 [5], 97200 RLU (ug of protein)-1; in the test on COS-7 [6], 77200 RLU (ug of protein)-1. Moreover, the Transfection efficiency in the test on COS-7 [7] is 11400 RLU (ug of protein)-1; in the test with COS-7 [8], 45400 RLU (ug of protein)-1.

For the compound `CC(C)CCCC(C)[C@H]1CC[C@H]2C3CC=C4C[C@@H](OC(=O)CCC(=O)OCCN(C)C)CCC4(C)[C@H]3CCC12C` (stereo partly specified), the Transfection efficiency in the test with COS-7 [1] was 7500 RLU (ug of protein)-1; in the test with COS-7 [2], 7200 RLU (ug of protein)-1; in the test on COS-7 [3], 6700 RLU (ug of protein)-1; with COS-7 [4] it was 14000 RLU (ug of protein)-1; in the test with COS-7 [5], 27000 RLU (ug of protein)-1; with COS-7 [6], 12200 RLU (ug of protein)-1. The values for the Transfection efficiency in the test with COS-7 [7] and in the test on COS-7 [8] were 9600 RLU (ug of protein)-1 and 10600 RLU (ug of protein)-1, respectively.

Regarding `CCCCCCCCCCCCCCOCC(COC(=O)C[N+](C)(C)C)OCCCCCCCCCCCCCC` (stereo unspecified), the Transfection efficiency is recorded as 18700 RLU (ug of protein)-1 with COS-7 [1]; 29400 RLU (ug of protein)-1 with COS-7 [2]; 31400 RLU (ug of protein)-1 in the test on COS-7 [3]; 4200 RLU (ug of protein)-1 with COS-7 [4]; 4100 RLU (ug of protein)-1 in the test on COS-7 [5]; 10000 RLU (ug of protein)-1 with COS-7 [6]. Besides, the results for the Transfection efficiency in the test on COS-7 [7] and in the test with COS-7 [8] were 17700 RLU (ug of protein)-1 and 15100 RLU (ug of protein)-1, respectively.

`CC(C)CCCC(C)[C@H]1CC[C@H]2C3CC=C4C[C@@H](OC(=O)CCC(=O)OCCCN(C)C)CCC4(C)[C@H]3CCC12C` (stereo partly specified): the Transfection efficiency in the test on COS-7 [1] is reported as 6000 RLU (ug of protein)-1; in the test on COS-7 [2] it was 6100 RLU (ug of protein)-1; in the test on COS-7 [3], 4700 RLU (ug of protein)-1; in the test with COS-7 [4] it was 8000 RLU (ug of protein)-1; in the test with COS-7 [5] it was 9200 RLU (ug of protein)-1; with COS-7 [6], 9200 RLU (ug of protein)-1. The results for the Transfection efficiency in the test on COS-7 [7] and in the test with COS-7 [8] were 9100 RLU (ug of protein)-1 and 8900 RLU (ug of protein)-1, respectively.

Regarding `CC(C)CCCC(C)[C@H]1CC[C@H]2C3CC=C4C[C@@H](OC(=O)OCCN(C)C)CCC4(C)[C@H]3CCC12C` (stereo partly specified), the Transfection efficiency in the test with COS-7 [1] is on record as 15200 RLU (ug of protein)-1; in the test with COS-7 [2], 10900 RLU (ug of protein)-1; with COS-7 [3], 7400 RLU (ug of protein)-1; in the test with COS-7 [4] it was 40500 RLU (ug of protein)-1; in the test on COS-7 [5] it was 93000 RLU (ug of protein)-1; in the test with COS-7 [6], 76600 RLU (ug of protein)-1. The Transfection efficiency with COS-7 [7] is reported as 24800 RLU (ug of protein)-1; with COS-7 [8] it was 41800 RLU (ug of protein)-1.

Take `CC(C)CCCC(C)[C@H]1CC[C@H]2C3CC=C4C[C@@H](OC(=O)CCC(=O)NCCCN(C)C)CCC4(C)[C@H]3CCC12C` (stereo partly specified): the Transfection efficiency with COS-7 [1] was 8800 RLU (ug of protein)-1; in the test with COS-7 [2], 7900 RLU (ug of protein)-1; in the test with COS-7 [3] it was 8000 RLU (ug of protein)-1; in the test with COS-7 [4] it was 12800 RLU (ug of protein)-1; in the test on COS-7 [5], 37300 RLU (ug of protein)-1; in the test on COS-7 [6], 22500 RLU (ug of protein)-1. The Transfection efficiency in the test on COS-7 [7] is 9800 RLU (ug of protein)-1; in the test on COS-7 [8], 14800 RLU (ug of protein)-1.

In the case of `CC(C)CCCC(C)[C@H]1CC[C@H]2C3CC=C4C[C@@H](OC(=O)OCC[N+](C)(C)CCO)CCC4(C)[C@H]3CCC12C` (stereo partly specified), the Transfection efficiency in the test with COS-7 [1] is 8100 RLU (ug of protein)-1; in the test with COS-7 [2], 5000 RLU (ug of protein)-1; in the test on COS-7 [3] it was 5300 RLU (ug of protein)-1; in the test on COS-7 [4] it was 17300 RLU (ug of protein)-1; with COS-7 [5] it was 83200 RLU (ug of protein)-1; in the test on COS-7 [6] it was 25500 RLU (ug of protein)-1. For the same compound, the Transfection efficiency with COS-7 [7] is reported as 8700 RLU (ug of protein)-1; with COS-7 [8], 10500 RLU (ug of protein)-1.

Regarding `CC(C)CCCC(C)[C@H]1CC[C@H]2C3CC=C4C[C@@H](OC(=O)C[N+](C)(C)C)CCC4(C)[C@H]3CCC12C` (stereo partly specified), the Transfection efficiency in the test on COS-7 [1] is given as 2800 RLU (ug of protein)-1; with COS-7 [2] it was 2000 RLU (ug of protein)-1; with COS-7 [3] it was 1700 RLU (ug of protein)-1; in the test on COS-7 [4] it was 17000 RLU (ug of protein)-1; with COS-7 [5] it was 86600 RLU (ug of protein)-1; with COS-7 [6], 20100 RLU (ug of protein)-1. Also, the Transfection efficiency is reported as 4300 RLU (ug of protein)-1 in the test with COS-7 [7] and 5300 RLU (ug of protein)-1 with COS-7 [8].

For the compound `CC(C)CCCC(C)[C@H]1CC[C@H]2C3CC=C4C[C@@H](OC(=O)CCC(=O)NCCN(C)C)CCC4(C)[C@H]3CCC12C` (stereo partly specified), the Transfection efficiency in the test on COS-7 [1] is given as 75400 RLU (ug of protein)-1; in the test on COS-7 [2] it was 54300 RLU (ug of protein)-1; in the test with COS-7 [3], 36500 RLU (ug of protein)-1; in the test with COS-7 [4], 17000 RLU (ug of protein)-1; in the test with COS-7 [5] it was 41100 RLU (ug of protein)-1; with COS-7 [6], 94100 RLU (ug of protein)-1. Moreover, the Transfection efficiency in the test with COS-7 [7] is on record as 98100 RLU (ug of protein)-1; in the test with COS-7 [8], 108900 RLU (ug of protein)-1.

As for `CC(C)CCCC(C)[C@H]1CC[C@H]2C3CC=C4C[C@@H](OC(=O)CN(C)C)CCC4(C)[C@H]3CCC12C` (stereo partly specified), the Transfection efficiency is given as 3100 RLU (ug of protein)-1 in the test on COS-7 [1]; 2100 RLU (ug of protein)-1 in the test with COS-7 [2]; 3400 RLU (ug of protein)-1 with COS-7 [3]; 6900 RLU (ug of protein)-1 in the test on COS-7 [4]; 4000 RLU (ug of protein)-1 in the test with COS-7 [5]; 1500 RLU (ug of protein)-1 in the test with COS-7 [6]. Also, the values for the Transfection efficiency in the test on COS-7 [7] and in the test on COS-7 [8] were 2000 RLU (ug of protein)-1 and 1700 RLU (ug of protein)-1, respectively.

Turning to `CCCCCCCCCCCCCCOCC(COC(=O)CN(C)C)OCCCCCCCCCCCCCC` (stereo unspecified), the Transfection efficiency was 1000 RLU (ug of protein)-1 in the test on COS-7 [1]; 2500 RLU (ug of protein)-1 in the test with COS-7 [2]; 600 RLU (ug of protein)-1 in the test with COS-7 [3]; 3300 RLU (ug of protein)-1 in the test on COS-7 [4]; 8000 RLU (ug of protein)-1 in the test with COS-7 [5]; 5500 RLU (ug of protein)-1 with COS-7 [6]. In addition, the results for the Transfection efficiency in the test with COS-7 [7] and in the test with COS-7 [8] were 1700 RLU (ug of protein)-1 and 600 RLU (ug of protein)-1, respectively.
